# Source: patent US20240384268A1, “Oligonucleotides” (Hudson Institute of Medical Research, priority 2021, published 2024)
# In the oligonucleotide strings, read from the 5' end, every base follows the letter of its sugar. An asterisk marks phosphorothioate; unmarked linkages are phosphodiester. Other units and linkages are bracketed, terminal groups are in braces. A string of capitals states the bases alone. d = 2'-deoxy (DNA); m = 2'-O-methyl
# Target: T1, TLR8 (Homo sapiens, UniProt Q9NR97)
# T1 sequence (Q9NR97 27-1041): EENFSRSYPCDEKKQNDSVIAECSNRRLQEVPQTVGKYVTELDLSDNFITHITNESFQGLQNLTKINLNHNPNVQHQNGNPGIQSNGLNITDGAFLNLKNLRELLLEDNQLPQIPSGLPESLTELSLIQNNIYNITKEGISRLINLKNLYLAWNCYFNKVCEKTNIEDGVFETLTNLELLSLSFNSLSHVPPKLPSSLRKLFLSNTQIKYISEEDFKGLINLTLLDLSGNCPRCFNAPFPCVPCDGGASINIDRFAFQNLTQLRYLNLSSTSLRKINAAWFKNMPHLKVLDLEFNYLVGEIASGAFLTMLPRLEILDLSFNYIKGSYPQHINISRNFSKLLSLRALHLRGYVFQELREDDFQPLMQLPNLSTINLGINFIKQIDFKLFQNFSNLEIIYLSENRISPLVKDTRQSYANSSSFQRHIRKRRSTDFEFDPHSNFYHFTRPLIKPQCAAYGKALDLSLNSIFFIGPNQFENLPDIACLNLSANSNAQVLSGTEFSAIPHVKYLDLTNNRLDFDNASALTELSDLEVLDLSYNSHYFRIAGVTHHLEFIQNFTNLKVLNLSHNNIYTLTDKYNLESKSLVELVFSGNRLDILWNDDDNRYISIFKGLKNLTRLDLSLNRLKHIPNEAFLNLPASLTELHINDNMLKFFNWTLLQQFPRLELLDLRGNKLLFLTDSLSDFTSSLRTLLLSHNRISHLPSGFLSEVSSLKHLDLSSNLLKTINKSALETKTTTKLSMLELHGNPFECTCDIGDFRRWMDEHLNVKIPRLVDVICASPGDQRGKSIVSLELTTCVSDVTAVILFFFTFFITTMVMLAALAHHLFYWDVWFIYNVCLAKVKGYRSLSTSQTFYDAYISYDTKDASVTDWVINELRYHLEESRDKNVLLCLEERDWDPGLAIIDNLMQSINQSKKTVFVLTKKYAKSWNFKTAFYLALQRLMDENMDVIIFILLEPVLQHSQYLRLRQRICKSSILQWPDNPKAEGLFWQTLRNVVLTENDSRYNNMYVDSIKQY
# Test: HEK-TLR8 NF-κB-luciferase reporter, R848 or Motolimod stimulation (potentiation or inhibition)
# Format: cell-based
# Parameters: expressed in transfected cells; host or cells: 293XLhTLR8 (HEK293)
# Conditions: for TLR8-500 nM: averaged NF-κB-Luciferase relative to R848: HEK-TLR8, 500 nM ASO, fold increase relative to R848 without ASO (Alharbi et al., 2020); for TLR8 100 nM: MOE-modified ASO at 100 nM; for TLR8 100 nM / TLR8 500 nM: averaged NF-κB-Luciferase relative to R848 condition (fold increase); for TLR8 500 nM: MOE-modified ASO at 500 nM
Substance,TLR8-500 nM: averaged NF-κB-Luciferase relative to R848,TLR8 100 nM,TLR8 500 nM
mU*mG*mG*mC*mG*T*A*G*T*T*T*C*T*C*T*mU*mC*mC*mU*mC (mU*mG*mG*mC*mG*dT*dA*dG*dT*dT*dT*dC*dT*dC*dT*mU*mC*mC*mU*mC; antisense) [[LINC-PINT]937.1],4.25 fold,–,–
"mC*mA*mC*mC*mC*T*T*C*T*C*T*C*T*G*G*mU*mC*mC*mC*mA (CACCCTTCTCTCTGGUCCCA; antisense; sugars from the 5' end m5 d10 m5, all phosphorothioate, methylation of C not given here) [[LINC-PINT]116]",5.97 fold,–,–
mA*mA*mA*mU*mG*T*C*C*T*G*G*C*C*C*T*mC*mA*mC*mU*mG (mA*mA*mA*mU*mG*dT*dC*dC*dT*dG*dG*dC*dC*dC*dT*mC*mA*mC*mU*mG) [[LINC-PINT]148.1],1.56 fold,–,–
mG*mU*mC*mU*mC*C*T*C*C*A*C*A*C*C*C*mU*mU*mC*mU*mC (mG*mU*mC*mU*mC*dC*dT*dC*dC*dA*dC*dA*dC*dC*dC*mU*mU*mC*mU*mC; antisense) [[LINC-PINT]126],7.17 fold,–,–
mG*mU*mU*mC*mA*G*T*C*A*G*A*T*C*G*C*mU*mG*mG*mG*mA (mG*mU*mU*mC*mA*dG*dT*dC*dA*dG*dA*dT*dC*dG*dC*mU*mG*mG*mG*mA) [[LINC-PINT]412 KL],1.70 fold,–,–
mC*mA*mG*mG*mC*C*T*C*C*A*G*T*G*T*C*mU*mU*mC*mU*mC (mC*mA*mG*mG*mC*dC*dT*dC*dC*dA*dG*dT*dG*dT*dC*mU*mU*mC*mU*mC; antisense) [[CDKN2B-AS1]2219],3.89 fold,–,–
mA*mA*mA*mG*mA*T*T*A*T*C*T*T*C*T*T*mU*mU*mA*mA*mU (mA*mA*mA*mG*mA*dT*dT*dA*dT*dC*dT*dT*dC*dT*dT*mU*mU*mA*mA*mU) [[CDKN2B-AS1]2132],5.04 fold,–,–
mC*mA*mC*mU*mG*T*A*T*T*T*T*A*T*T*A*mC*mA*mG*mA*mA (mC*mA*mC*mU*mG*dT*dA*dT*dT*dT*dT*dA*dT*dT*dA*mC*mA*mG*mA*mA; antisense) [[LINC-PINT]2990],4.86 fold,–,–
"GTCCAAGATCAGCAGTCTCA (antisense; 2'-MOE modified, pattern not given here) [CTNN2B-2341 MOE]",–,3.021,3.364
"GGTTTTGGCTGGGATCAAGT (antisense; 2'-MOE modified, pattern not given here) [CAMSAP1-4697 MOE]",–,5.496,6.332
mU*mG*mA*mU*mG*A*T*G*C*T*T*G*C*A*G*mG*mA*mG*mG*mC (mU*mG*mA*mU*mG*dA*dT*dG*dC*dT*dT*dG*dC*dA*dG*mG*mA*mG*mG*mC) [[LINC-PINT|283.1],1.57 fold,–,–
mU*mU*mG*mU*mG*A*A*A*A*G*A*T*T*A*T*mC*mU*mU*mC*mU (mU*mU*mG*mU*mG*dA*dA*dA*dA*dG*dA*dT*dT*dA*dT*mC*mU*mU*mC*mU) [[CDKN2B-AS1]2138],1.94 fold,–,–
"mG*mG*mG*mU*mC*T*C*C*T*C*C*A*C*A*C*mC*mC*mU*mU*mC (GGGUCTCCTCCACACCCUUC; antisense; sugars from the 5' end m5 d10 m5, all phosphorothioate, methylation of C not given here) [[LINC-PINT]128]",1.23 fold,–,–
"TTTGCACACTTCGTACCCAA (antisense; 2'-MOE modified, pattern not given here) [CAMSAP1-4916 MOE]",–,1.877,2.199
"GGGTATCGAAAGAGTCTGGA (antisense; 2'-MOE modified, pattern not given here) [EGFR-3908 MOE]",–,3.138,4.073
mG*mU*mC*mA*mA*A*C*C*T*A*G*A*A*A*G*mA*mA*mG*mC*mA (mG*mU*mC*mA*mA*dA*dC*dC*dT*dA*dG*dA*dA*dA*dG*mA*mA*mG*mC*mA; antisense) [[CDKN2B-AS1]1528],1.85 fold,–,–
mG*mG*mU*mC*mU*C*C*T*C*C*A*C*A*C*C*mC*mU*mU*mC*mU (mG*mG*mU*mC*mU*dC*dC*dT*dC*dC*dA*dC*dA*dC*dC*mC*mU*mU*mC*mU; antisense) [[LINC-PINT]127],3.72 fold,–,–
"mG*mA*mA*mA*mA*G*A*T*T*A*T*C*T*T*C*mU*mU*mU*mU*mA (GAAAAGATTATCTTCUUUUA; sugars from the 5' end m5 d10 m5, all phosphorothioate, methylation of C not given here) [[CDKN2B-AS1]2134]",1.87 fold,–,–
"mU*mC*mU*mC*mU*G*G*T*C*C*C*A*T*C*C*mC*mU*mU*mC*mU (UCUCUGGTCCCATCCCUUCU; antisense; sugars from the 5' end m5 d10 m5, all phosphorothioate, methylation of C not given here) [[LINC-PINT]108]",11.42 fold,–,–
mC*mU*mU*mC*mU*C*T*C*T*G*G*T*C*C*C*mA*mU*mC*mC*mC (mC*mU*mU*mC*mU*dC*dT*dC*dT*dG*dG*dT*dC*dC*dC*mA*mU*mC*mC*mC) [[LINC-PINT]112],9.21 fold,–,–
mA*mC*mC*mC*mU*T*C*T*C*T*C*T*G*G*T*mC*mC*mC*mA*mU (mA*mC*mC*mC*mU*dT*dC*dT*dC*dT*dC*dT*dG*dG*dT*mC*mC*mC*mA*mU; antisense) [[LINC-PINT]115],7.57 fold,–,–
mU*mC*mU*mC*mC*A*T*G*T*C*C*C*A*G*G*mC*mC*mU*mC*mC (mU*mC*mU*mC*mC*dA*dT*dG*dT*dC*dC*dC*dA*dG*dG*mC*mC*mU*mC*mC; antisense) [[CDKN2B-AS1]2230],9.17 fold,–,–
"mG*mG*mU*mC*mC*C*A*T*C*C*C*T*T*C*T*mG*mC*mU*mG*mC (GGUCCCATCCCTTCTGCUGC; sugars from the 5' end m5 d10 m5, all phosphorothioate, methylation of C not given here) [[LINC-PINT]103]",1.87 fold,–,–
mA*mG*mG*mC*mC*T*C*C*A*G*T*G*T*C*T*mU*mC*mU*mC*mC (mA*mG*mG*mC*mC*dT*dC*dC*dA*dG*dT*dG*dT*dC*dT*mU*mC*mU*mC*mC; antisense) [[CDKN2B-AS1]2218],4.66 fold,–,–
mC*mC*mU*mU*mC*T*G*C*T*G*C*C*A*A*G*mC*mC*mC*mC*mA (mC*mC*mU*mU*mC*dT*dG*dC*dT*dG*dC*dC*dA*dA*dG*mC*mC*mC*mC*mA; antisense) [[LINC-PINT]94],3.71 fold,–,–
mC*mC*mC*mU*mU*C*T*C*T*C*T*G*G*T*C*mC*mC*mA*mU*mC (mC*mC*mC*mU*mU*dC*dT*dC*dT*dC*dT*dG*dG*dT*dC*mC*mC*mA*mU*mC; antisense) [[LINC-PINT]114],8.12 fold,–,–
mC*mU*mU*mU*mA*T*A*T*T*A*C*A*A*A*G*mC*mU*mA*mC*mU (mC*mU*mU*mU*mA*dT*dA*dT*dT*dA*dC*dA*dA*dA*dG*mC*mU*mA*mC*mU; antisense) [[LINC-PINT]2755],6.37 fold,–,–
"TGGCAGGCTCAGTGATGTCT (antisense; 2'-MOE modified, pattern not given here) [CTNN2B-1642 MOE]",–,1.074,0.973
mC*mA*mA*mG*mC*C*C*C*A*G*C*G*T*T*C*mC*mU*mC*mC*mG (mC*mA*mA*mG*mC*dC*dC*dC*dA*dG*dC*dG*dT*dT*dC*mC*mU*mC*mC*mG; antisense) [[LINC-PINT]83.1],4.44 fold,–,–
"mG*mU*mC*mC*mC*A*T*C*C*C*T*T*C*T*G*mC*mU*mG*mC*mC (GUCCCATCCCTTCTGCUGCC; antisense; sugars from the 5' end m5 d10 m5, all phosphorothioate, methylation of C not given here) [[LINC-PINT]102]",5.07 fold,–,–
